Patent US6890736B1, “Methods for producing proteins in cultured cells” (Immunex Corporation, priority 2002, dated 2005)

Experiments:
Type in all cases: cell-based, Chinese hamster
[1] = system: cell line 25H9 (CHO cells); test: Example 2: cell number and viability
Experimental: (§1) About 2×10^6 cells of cell line 25H9 were inoculated into 30 milliliters of serum-free medium and incubated at the temperatures indicated in Table 1 in vented shake flasks. At the times indicated in Table 1, samples were taken from each flask to determine IL-1R-II titer, cell number, and cell viability. IL-1R-II protein titer was determined by ELISA assay. Cell number was determined by counting cells in a hemocytometer. Cell viability was determined by trypan blue staining and counting stained cells in a hemocytometer. Cumulative viable cell density (CVCD) is the area under the curve of a plot of the viable cell density versus time (in units of cells/ml/day). Productivity (pg of IL-1R-II/cell/day) was determined by dividing the protein titer on a particular day by the CVCD on the same day. Cells were fed with amino acids on days 2 and 5, and dextrose was added periodically in order to maintain levels above 2.0 g/L. All samples were done in duplicate, and the data shown is an average value.
(§2) To determine an optimum temperature and decitabine concentration, three temperatures (30° C., 31° C., and 32° C.) and three decitabine concentrations (10 μM, 15 μM, and 20 μM) were tested. A 31° C. culture containing 0.5 mM sodium butyrate was grown as a control. […] See e.g. International Application Nos. WO 89/06686 and WO 87/05626. The experiment was performed as in Example 1 except that the inducer concentrations, temperatures, and days at which data was collected are as indicated in Table 2 and FIG. 1.

[2] = Example 2: cell number and viability; settings: Chinese hamster; for viability at 6 day, 10 μM / viability at 8 day, 10 μM / viability at 0 day, 10 μM / viability at 3 day, 10 μM: 10 μM decitabine; for viability at 6 day, 10 μM / viability at 6 day, 15 μM / viability at 6 day, 20 μM: day 6; for viability at 8 day, 10 μM / viability at 8 day, 15 μM / viability at 8 day, 20 μM: day 8; for viability at 0 day, 15 μM / viability at 3 day, 15 μM / viability at 6 day, 15 μM / viability at 8 day, 15 μM: 15 μM decitabine; for viability at 0 day, 15 μM / viability at 0 day, 20 μM / viability at 0 day, 10 μM: day 0; for viability at 3 day, 15 μM / viability at 3 day, 20 μM / viability at 3 day, 10 μM: day 3; for viability at 0 day, 20 μM / viability at 3 day, 20 μM / viability at 6 day, 20 μM / viability at 8 day, 20 μM: 20 μM decitabine
Experimental: as §1, §2

[3] = system: cell line 25H9 (CHO cells); test: Example 3: cell number (Guava PCA Cytometer); settings: 31° C., 10 μM
Experimental: as §1
(§3) The following experiment compares the effects of 5-bromo-2′-deoxycytidine 5′-monophosphate and 5-aza-2′-deoxycytidine on induction of protein production. The experiment was done as described in Example 1 with the following exceptions. All cultures were incubated at 31° C., and cell number and viability were determined using a Guava PCA Cytometer (available from Guava Technologies, Hayward, Calif., USA). Samples were done in triplicate.

[4] = system: cell line 25H9 (CHO cells that produce IL-1R-II protein); test: Example 3: induction with 5-bromo-2′-deoxycytidine 5′-monophosphate, IL-1R-II production; settings: 31° C., 10 μM
Experimental: as §1, §3

[5] = 30° C., 10 μM decitabine, day 0
[6] = 30° C., 10 μM decitabine, day 3
[7] = 30° C., 10 μM decitabine, day 6
[8] = 30° C., 10 μM decitabine, day 8
[9] = 30° C., 15 μM decitabine, day 0
[10] = 30° C., 15 μM decitabine, day 3
[11] = 30° C., 15 μM decitabine, day 6
[12] = 30° C., 15 μM decitabine, day 8
[13] = 30° C., 20 μM decitabine, day 0
[14] = 30° C., 20 μM decitabine, day 3
[15] = 30° C., 20 μM decitabine, day 6
[16] = 30° C., 20 μM decitabine, day 8
[17] = 31° C., 10 μM decitabine, day 0
[18] = 31° C., 10 μM decitabine, day 3
[19] = 31° C., 10 μM decitabine, day 6
[20] = 31° C., 10 μM decitabine, day 8
[21] = 31° C., 15 μM decitabine, day 0
[22] = 31° C., 15 μM decitabine, day 3
[23] = 31° C., 15 μM decitabine, day 6
[24] = 31° C., 15 μM decitabine, day 8
[25] = 31° C., 20 μM decitabine, day 0
[26] = 31° C., 20 μM decitabine, day 3
[27] = 31° C., 20 μM decitabine, day 6
[28] = 31° C., 20 μM decitabine, day 8
[29] = 32° C., 10 μM decitabine, day 0
[30] = 32° C., 10 μM decitabine, day 3
[31] = 32° C., 10 μM decitabine, day 6
[32] = 32° C., 10 μM decitabine, day 8
[33] = 32° C., 15 μM decitabine, day 0
[34] = 32° C., 15 μM decitabine, day 3
[35] = 32° C., 15 μM decitabine, day 6
[36] = 32° C., 15 μM decitabine, day 8
[37] = 32° C., 20 μM decitabine, day 0
[38] = 32° C., 20 μM decitabine, day 3
[39] = 32° C., 20 μM decitabine, day 6
[40] = 32° C., 20 μM decitabine, day 8
[41] = CHO cell line 25H9 producing IL-1R-II, 30° C.
[42] = cell line 25H9 (CHO cells), 30° C.
[43] = cell line 25H9 (CHO cells), 31° C.
[44] = cell line 25H9 (CHO cells), 32° C.

Nc1ncn([C@H]2C[C@H](O)[C@@H](CO)O2)c(=O)n1 [decitabine, 5-aza-2′-deoxycytidine]
Cumulative Viable Cell Density [1, 5]: 0 mL⁻¹ day⁻¹
Viable Cell Density [1, 5]: 2e+06 mL⁻¹
Cumulative Viable Cell Density [1, 6]: 7.4e+06 mL⁻¹ day⁻¹
Viable Cell Density [1, 6]: 3e+06 mL⁻¹
Cumulative Viable Cell Density [1, 7]: 1.43e+07 mL⁻¹ day⁻¹
Viable Cell Density [1, 7]: 1.7e+06 mL⁻¹
Cumulative Viable Cell Density [1, 8]: 1.81e+07 mL⁻¹ day⁻¹
Viable Cell Density [1, 8]: 2.1e+06 mL⁻¹
Cumulative Viable Cell Density [1, 9]: 0 mL⁻¹ day⁻¹
Viable Cell Density [1, 9]: 2e+06 mL⁻¹
Cumulative Viable Cell Density [1, 10]: 6.8e+06 mL⁻¹ day⁻¹
Viable Cell Density [1, 10]: 2.6e+06 mL⁻¹
Cumulative Viable Cell Density [1, 11]: 1.4e+07 mL⁻¹ day⁻¹
Viable Cell Density [1, 11]: 2.2e+06 mL⁻¹
Cumulative Viable Cell Density [1, 12]: 1.81e+07 mL⁻¹ day⁻¹
Viable Cell Density [1, 12]: 1.9e+06 mL⁻¹
Cumulative Viable Cell Density [1, 13]: 0 mL⁻¹ day⁻¹
Viable Cell Density [1, 13]: 2e+06 mL⁻¹
Cumulative Viable Cell Density [1, 14]: 7.9e+06 mL⁻¹ day⁻¹
Viable Cell Density [1, 14]: 3.3e+06 mL⁻¹
Cumulative Viable Cell Density [1, 15]: 1.63e+07 mL⁻¹ day⁻¹
Viable Cell Density [1, 15]: 2.3e+06 mL⁻¹
Cumulative Viable Cell Density [1, 16]: 2.04e+07 mL⁻¹ day⁻¹
Viable Cell Density [1, 16]: 1.8e+06 mL⁻¹
Cumulative Viable Cell Density [1, 17]: 0 mL⁻¹ day⁻¹
Viable Cell Density [1, 17]: 2e+06 mL⁻¹
Cumulative Viable Cell Density [1, 18]: 8.7e+06 mL⁻¹ day⁻¹
Viable Cell Density [1, 18]: 3.9e+06 mL⁻¹
Cumulative Viable Cell Density [1, 19]: 2.1e+07 mL⁻¹ day⁻¹
Viable Cell Density [1, 19]: 4.3e+06 mL⁻¹
Cumulative Viable Cell Density [1, 20]: 2.85e+07 mL⁻¹ day⁻¹
Viable Cell Density [1, 20]: 3.2e+06 mL⁻¹
Cumulative Viable Cell Density [1, 21]: 0 mL⁻¹ day⁻¹
Viable Cell Density [1, 21]: 2e+06 mL⁻¹
Cumulative Viable Cell Density [1, 22]: 7.9e+06 mL⁻¹ day⁻¹
Viable Cell Density [1, 22]: 3.3e+06 mL⁻¹
Cumulative Viable Cell Density [1, 23]: 1.92e+07 mL⁻¹ day⁻¹
Viable Cell Density [1, 23]: 4.2e+06 mL⁻¹
Cumulative Viable Cell Density [1, 24]: 2.58e+07 mL⁻¹ day⁻¹
Viable Cell Density [1, 24]: 2.4e+06 mL⁻¹
Cumulative Viable Cell Density [1, 25]: 0 mL⁻¹ day⁻¹
Viable Cell Density [1, 25]: 2e+06 mL⁻¹
Cumulative Viable Cell Density [1, 26]: 9.2e+06 mL⁻¹ day⁻¹
Viable Cell Density [1, 26]: 4.2e+06 mL⁻¹
Cumulative Viable Cell Density [1, 27]: 2.17e+07 mL⁻¹ day⁻¹
Viable Cell Density [1, 27]: 4.2e+06 mL⁻¹
Cumulative Viable Cell Density [1, 28]: 2.86e+07 mL⁻¹ day⁻¹
Viable Cell Density [1, 28]: 2.7e+06 mL⁻¹
Cumulative Viable Cell Density [1, 29]: 0 mL⁻¹ day⁻¹
Viable Cell Density [1, 29]: 2e+06 mL⁻¹
Cumulative Viable Cell Density [1, 30]: 8e+06 mL⁻¹ day⁻¹
Viable Cell Density [1, 30]: 3.4e+06 mL⁻¹
Cumulative Viable Cell Density [1, 31]: 1.9e+07 mL⁻¹ day⁻¹
Viable Cell Density [1, 31]: 3.9e+06 mL⁻¹
Cumulative Viable Cell Density [1, 32]: 2.49e+07 mL⁻¹ day⁻¹
Viable Cell Density [1, 32]: 2.1e+06 mL⁻¹
Cumulative Viable Cell Density [1, 33]: 0 mL⁻¹ day⁻¹
Viable Cell Density [1, 33]: 2e+06 mL⁻¹
Cumulative Viable Cell Density [1, 34]: 8e+06 mL⁻¹ day⁻¹
Viable Cell Density [1, 34]: 3.4e+06 mL⁻¹
Cumulative Viable Cell Density [1, 35]: 1.82e+07 mL⁻¹ day⁻¹
Viable Cell Density [1, 35]: 3.4e+06 mL⁻¹
Cumulative Viable Cell Density [1, 36]: 2.41e+07 mL⁻¹ day⁻¹
Viable Cell Density [1, 36]: 2.5e+06 mL⁻¹
Cumulative Viable Cell Density [1, 37]: 0 mL⁻¹ day⁻¹
Viable Cell Density [1, 37]: 2e+06 mL⁻¹
Cumulative Viable Cell Density [1, 38]: 8.3e+06 mL⁻¹ day⁻¹
Viable Cell Density [1, 38]: 3.6e+06 mL⁻¹
Cumulative Viable Cell Density [1, 39]: 1.87e+07 mL⁻¹ day⁻¹
Viable Cell Density [1, 39]: 3.3e+06 mL⁻¹
Cumulative Viable Cell Density [1, 40]: 2.36e+07 mL⁻¹ day⁻¹
Viable Cell Density [1, 40]: 1.6e+06 mL⁻¹
viability at 6 day, 10 μM [2, 41]: 70.3%
viability at 8 day, 10 μM [2, 41]: 49%
viability at 0 day, 15 μM [2, 41]: 94.2%
viability at 3 day, 15 μM [2, 41]: 88.9%
viability at 6 day, 15 μM [2, 41]: 85.9%
viability at 8 day, 15 μM [2, 41]: 33.2%
viability at 0 day, 20 μM [2, 41]: 94.2%
viability at 3 day, 20 μM [2, 41]: 93.3%
viability at 6 day, 20 μM [2, 41]: 77%
viability at 8 day, 20 μM [2, 41]: 48.4%
viability at 0 day, 10 μM ([2]; CHO cell line 25H9 producing IL-1R-II, 31° C.): 94.2%
viability at 0 day, 10 μM [2, 42]: 94.2%
viability at 3 day, 10 μM [2, 42]: 91.8%
viability at 3 day, 10 μM [2, 43]: 89.3%
viability at 6 day, 10 μM [2, 43]: 79.6%
viability at 8 day, 10 μM [2, 43]: 63.5%
viability at 0 day, 15 μM [2, 43]: 94.2%
viability at 3 day, 15 μM [2, 43]: 97.6%
viability at 6 day, 15 μM [2, 43]: 78.9%
viability at 8 day, 15 μM [2, 43]: 57.6%
viability at 0 day, 20 μM [2, 43]: 94.2%
viability at 3 day, 20 μM [2, 43]: 87.7%
viability at 6 day, 20 μM [2, 43]: 77.9%
viability at 8 day, 20 μM [2, 43]: 57.2%
viability at 0 day, 10 μM [2, 44]: 94.2%
viability at 3 day, 10 μM [2, 44]: 85.4%
viability at 6 day, 10 μM [2, 44]: 71.7%
viability at 8 day, 10 μM [2, 44]: 42.3%
viability at 0 day, 15 μM [2, 44]: 94.2%
viability at 3 day, 15 μM [2, 44]: 87.6%
viability at 6 day, 15 μM [2, 44]: 65.4%
viability at 8 day, 15 μM [2, 44]: 36.1%
viability at 0 day, 20 μM [2, 44]: 94.2%
viability at 3 day, 20 μM [2, 44]: 89.1%
viability at 6 day, 20 μM [2, 44]: 64.7%
viability at 8 day, 20 μM [2, 44]: 41.1%
Viable Cell Density ([3]; day 0): 2.4 cells/ml × 10^6
Viable Cell Density ([3]; day 2): 2.4 cells/ml × 10^6
Viable Cell Density ([3]; day 5): 1.8 cells/ml × 10^6
Viable Cell Density ([3]; day 7): 1.1 cells/ml × 10^6
Viable Cell Density ([3]; day 9): 0.9 cells/ml × 10^6
Titer of IL-1R-II ([4]; day 0): 0.0 mg/L
Productivity ([4]; day 2): 12.2 pg of IL-1RII/cell/day
Titer of IL-1R-II ([4]; day 2): 58.5 mg/L
Productivity ([4]; day 5): 13.3 pg of IL-1RII/cell/day
Titer of IL-1R-II ([4]; day 5): 148.5 mg/L
Productivity ([4]; day 7): 14.1 pg of IL-1RII/cell/day
Titer of IL-1R-II ([4]; day 7): 197.5 mg/L
Productivity ([4]; day 9): 14.9 pg of IL-1RII/cell/day
Titer of IL-1R-II ([4]; day 9): 238.4 mg/L
